Results taken from patent US8518890B2, “Remedies for sex hormone dependent disease” (Takeda Pharmaceutical Company Limited, priority 2002, dated 2013).

How the values were obtained:
Experiment in all cases: Effect on cell growth in the presence of androgen (cell count)
Type in all cases: cell-based
LNCaP-FGC cells = conditions: 0.01 to 10 ng/mL testosterone, cells counted 3 days after addition, FIG. 1
Description: (§1) (Method) LNCaP-hr (cultured for 60 weeks in culture broth free of androgen) and LNCaP-FGC cells were plated on a 24 well plate at 40000 cells/mL/well, 0.01 to 10 ng/mL of testosterone was added the next day, and the cells were counted 3 days after the addition. In addition, MDA PCa 2b-hr (cultured for 61 weeks in culture broth free of androgen) and MDA PCa 2b cells were plated on a 24 well plate at 40000 cells/mL/well, 0.1 to 100 ng/mL of testosterone was added the next day, and the cells were counted 4 days after the addition. (Results) The growth of LNCaP-FGC and MDA PCa 2b was promoted by testosterone [FIGS. 1 and 2]. In contrast, the growth of LNCaP-hr and MDA PCa 2b-hr cells were suppressed by testosterone [FIGS. 1 and 2].

MDA PCa 2b cells = conditions: 0.1 to 100 ng/mL testosterone, cells counted 4 days after addition, FIG. 2
Description: as §1

[1] = system: LNCaP-hr cells (highly androgen sensitive cell line); conditions: LNCaP-hr (cultured 60 weeks in androgen-free broth), 0.01 to 10 ng/mL testosterone, cells counted 3 days after addition, FIG. 1
[2] = system: MDA PCa 2b-hr cells (highly androgen sensitive cell line); conditions: MDA PCa 2b-hr (cultured 61 weeks in androgen-free broth), 0.1 to 100 ng/mL testosterone, cells counted 4 days after addition, FIG. 2

Q: C[C@]12CC[C@H]3[C@@H](CCC4=CC(=O)CC[C@@]43C)[C@@H]1CC[C@@H]2O [testosterone] was tested. Which cell growth (LNCaP-FGC cells) did it give?
A: Its cell growth is “promoted”.

Q: And the cell growth (MDA PCa 2b cells)?
A: The cell growth was “promoted”.

Q: What about the cell growth [1] of the same compound?
A: Its cell growth is “suppressed”.

Q: What about the cell growth [2] of the same compound?
A: Its cell growth is “suppressed”.
